Results reported in US5438057A, “Pharmaceutical compositions” (priority 1991, dated 1995).

Legend:
[1] = system: acute daunorubicin toxicity; conditions: Herman et al, Res. Commun. Chem. Pathol. Pharmacol., 1985, 48, 39; cited from earlier work
[2] = system: daunorubicin toxicity; doxorubicin toxicity; conditions: Herman et al, Adv. Pharmacol. Chemother., 1982, 19, 249; cited from earlier work
[3] = system: doxorubicin-induced cardiotoxicity; assay: Protective activity against doxorubicin-induced cardiotoxicity: cardiac output, heart rate, survival, congestive heart failure at 8 weeks; format: in vivo, Sprague Dawley rats; conditions: for Survival: survivors/animals; for Incidence of CHF (congestive heart failure): over 8 weeks
Experimental: (§1) Mature male Sprague Dawley rats, 13-14 weeks old, weighing 400-500 gm were used. The animals were caged in groups of three and were kept in a constant environment. They were fed 41-B cubed diet and water ad libitum. The animal house was maintained in an alternating 12-hour wake-sleep cycle.
(§2) The cardioprotective activity of (±) trans-1,2-bis(3,5-dioxopiperazin-1-yl)cyclobutane (hereinafter referred to as the compound) was studied in the rats. […] The suspension was prepared shortly before use and was administered at a constant injection volume of 1 ml per 100 gm body weight. Doxorubicin hydrochloride (hereafter referred to as doxorubicin) (Farmitalia, Milan, Italy) was dissolved in sterile water (2 mg/ml) before injection.
(§3) A group of 6 animals received a combined treatment of the compound and doxorubicin. The compound was administered to animals as a single intraperitoneal (i.p.) injection into the lower right quadrant of the abdomen to avoid damage to vital organs. An hour after the administration of the compound, the animals received a single intravenous (i.v.) injection of doxorubicin (4 mg/kg), via the femoral vein. A group of 10 animals received an i.p. injection of saline (1 ml/100 gm) followed by an i.v. injection of saline (0.2 ml/100 gm) one hour later. These rats acted as control animals. Nine animals received an i.p. injection of saline one hour before an i.v. administration of doxorubicin (4 mg/kg). To minimise the effects of circadian timing, doxorubicin administration was carried out between 13.30 hours and 15.30 hours. During intravenous drug administration and for subsequent cardiac output measurements, animals were anaesthetised with choral hydrate (300 mg/kg).
The protective activity of the compound against doxorubicin-induced cardiotoxicity in the rats was assessed at 8 weeks by measuring the cardiac output in animals receiving the treatment using an external counting technique wherein a radioactive tracer, technetium (^99m TcO4), was injected as a bolus into the femoral vein of an anaesthetised animal. The activity time curve over the heart was recorded at 0.1 second intervals for 40 seconds, using an NaI detector connected to a multi-channel analyzer (ND-62, Nuclear Data). ECG and heart rate were determined concomitantly with the cardiac output measurement, using a human ECG monitor (Hewlett Packard 7830A) coupled to a scope memory (model VK-12-2, Seltek Instrument Ltd.) and a chart recorder.
Gross post mortem examinations were carried out on the animals that died during the study as well as those killed at the end of experiment (8 weeks).
(§4) In this study, statistical differences between group means were analysed using Student's t-test.

[4] = Solubility in saline / aqueous media; format: physicochemical; conditions: administered as suspension in 0.5% CMC
[5] = Body weight (general acute toxicity) after i.p. pretreatment and doxorubicin; format: in vivo, Sprague Dawley rats
Experimental: as §1, §2, §3
The animals were weighed daily for up to three weeks after receiving treatment. The maximum reduction in body weight over this period was used as an index for the assessment of general acute toxicity. Animals were also weighed at 4 and 8 weeks to assess the general toxicity of the drug.
as §4

[6] = compound 100 mg/kg i.p. + doxorubicin 4 mg/kg i.v. after 1 hour, 8 weeks
[7] = compound 150 mg/kg i.p. + doxorubicin 4 mg/kg i.v. after 1 hour, 8 weeks
[8] = compound 200 mg/kg i.p. + doxorubicin 4 mg/kg i.v. after 1 hour, 8 weeks
[9] = compound 100, 150 or 200 mg/kg i.p. + doxorubicin 4 mg/kg
[10] = saline + doxorubicin 4 mg/kg, 8 weeks
[11] = saline i.p. + doxorubicin 4 mg/kg i.v. after 1 hour, 8 weeks
[12] = saline i.p. + doxorubicin 4 mg/kg i.v. after 1 hour

In the case of `C[C@H]([C@H](C)N1CC(=O)NC(=O)C1)N1CC(=O)NC(=O)C1` [R=R'=CH3 and R"=H (meso)], the “protective effect against acute daunorubicin toxicity” value (from here on “protective effect”) [1] is listed as “either no protective activity or only minimal protective activity”.

In the case of `O=C1CN(CCN2CC(=O)NC(=O)C2)CC(=O)N1` [R=R'=R"=H], the “protective effect” value [1] is given as “either no protective activity or only minimal protective activity”.

In the case of `O=C1CN(C2CCC2N2CC(=O)NC(=O)C2)CC(=O)N1` (stereo not drawn) [R+R'=--CH2 --CH2 -- and R"=H], the “protective effect” value [1] is given as “either no protective activity or only minimal protective activity”.

For `CC(CN1CC(=O)NC(=O)C1)N1CC(=O)NC(=O)C1` (racemic) [the compound having R=CH3 and R'=R"=H (as the dl, d or l isomer)], the “protective effect” value [1] is listed as “give protection against the lethal effects of daunorubicin”.

In the case of `CCC(CN1CC(=O)NC(=O)C1)N1CC(=O)NC(=O)C1` (racemic) [R=C2 H5 and R'=R"=H (dl)], the “protective effect” value [1] is listed as “either no protective activity or only minimal protective activity”.

In the case of `CC(CN1CC(=O)NC(=O)C1)N1CC(=O)NC(=O)C1` (racemic) [ICRF 159], the “effectiveness in reducing high dose daunorubicin toxicity relative to doxorubicin toxicity” value [2] is listed as “consistently more effective in reducing high dose daunorubicin toxicity than doxorubicin toxicity”.

With `O=C1CN([C@@H]2CC[C@H]2N2CC(=O)NC(=O)C2)CC(=O)N1` (racemic) [Compound, (±) trans-1,2-bis(3,5-dioxopiperazin-1-yl)cyclobutane] the “change in heart rate” value ([3]; animals pretreated with the compound + doxorubicin 4 mg/kg) was “no change in heart rate”, the “RCO: mean relative cardiac output (treated / age-matched control)” value [3, 6] was 0.80 ± 0.05 and the “RHR: mean relative heart rate (treated / age-matched control)” value [3, 6] was 1.04 ± 0.03. For the same molecule, the Survival [3, 6] was 6/6, the “Incidence of CHF (congestive heart failure)” value (shortened to “Incidence of CHF”) ([3]; compound 100 mg/kg i.p. + doxorubicin 4 mg/kg i.v. after 1 hour) was 0/6 and the “RCO: mean relative cardiac output (treated / age-matched control)” value [3, 7] was 0.86 ± 0.06. For the same molecule, the “RHR: mean relative heart rate (treated / age-matched control)” value [3, 7] was 1.00 ± 0.04, the Survival [3, 7] was 6/6 and the “Incidence of CHF” value ([3]; compound 150 mg/kg i.p. + doxorubicin 4 mg/kg i.v. after 1 hour) was 0/6. The “RCO: mean relative cardiac output (treated / age-matched control)” value [3, 8] was 0.84 ± 0.05, the “RHR: mean relative heart rate (treated / age-matched control)” value [3, 8] was 1.05 ± 0.03 and the Survival [3, 8] was 6/6. The “Incidence of CHF” value ([3]; compound 200 mg/kg i.p. + doxorubicin 4 mg/kg i.v. after 1 hour) was 0/6, the “activity against doxorubicin-induced cardiotoxicity” value [3, 9] was “significant activity against doxorubicin-induced cardiotoxicity” and the “survival (in words)” value [3, 9] was “survived the course of study of 8 weeks”. The “signs of congestive failure” value ([3]; compound 100, 150 or 200 mg/kg i.p. + doxorubicin 4 mg/kg, 8 weeks) was “without showing any signs of congestive failure”, the “impairment in cardiac output compared to saline and doxorubicin” value ([3]; compound 100, 150 or 200 mg/kg i.p. + doxorubicin 4 mg/kg, p<0.001) was “significantly less impairment in cardiac output” and the “dose dependence of the protective activity” value ([3]; dose range 100-200 mg/kg i.p. + doxorubicin 4 mg/kg) was “no indication of dose dependent changes in the protective activity”. For the same molecule, the solubility in saline [4] was “inadequately soluble in saline”.

In the case of `CC[C@H]([C@H](C)N1CC(=O)NC(=O)C1)N1CC(=O)NC(=O)C1` (relative stereo) [R: CH3, R'=C2 H5 and R"=H (dl-erythro)], the “protective effect” value [1] is given as “either no protective activity or only minimal protective activity”.

For `CN1C(=O)CN(CCN2CC(=O)N(C)C(=O)C2)CC1=O` [R=R'=H and R"=CH3], the “protective effect” value [1] is listed as “either no protective activity or only minimal protective activity”.

For `O=C1CN(CCCN2CC(=O)NC(=O)C2)CC(=O)N1`, the “protective effect” value [1] is given as “either no protective activity or only minimal protective activity”.

For `COc1cccc2c1C(=O)c1c(O)c3c(c(O)c1C2=O)C[C@@](O)(C(=O)CO)C[C@@H]3O[C@H]1C[C@H](N)[C@H](O)[C@H](C)O1` [doxorubicin], the “reduction in cardiac output” value [3, 10] was 60%, the “reduction in heart rate” value [3, 10] was 35% and the death during study ([3]; saline + doxorubicin 4 mg/kg, 9 animals) was “one animal died just before 8 weeks”. For the same molecule, the “RCO: mean relative cardiac output (treated / age-matched control)” value [3, 11] was 0.41 ± 0.04, the “RHR: mean relative heart rate (treated / age-matched control)” value [3, 11] was 0.65 ± 0.19 and the Survival [3, 11] was 8/9. For the same molecule, the “Incidence of CHF” value [3, 12] was 0/8, the “reduction in body weight in the first three weeks after treatment” value ([5]; doxorubicin 4 mg/kg i.v., pretreated with saline i.p.) was > 10% and the “W2: mean body weight at 4 weeks after treatment” value [5, 12] was 381 ± 8. The “W3: mean body weight at 8 weeks after treatment” value [5, 12] was 324 ± 27, the “ΔW(%): maximum reduction in body weight in the first 3 weeks after treatment” value [5, 12] was 11.6 ± 0.7% and the “W1: mean body weight of animals at the time of injection” value ([5]; saline i.p. + doxorubicin 4 mg/kg i.v. after 1 hour, baseline) was 447 ± 11.

In the case of `CC(CN1CC(=O)N(C)C(=O)C1)N1CC(=O)N(C)C(=O)C1` (stereo not drawn) [R=R"=CH3and R'=H (l)], the “protective effect” value [1] is given as “either no protective activity or only minimal protective activity”.

For `O=C1CN(CCN2CC(=O)N(CN3CCOCC3)C(=O)C2)CC(=O)N1CN1CCOCC1` [bimolane], the “protective effect” value [1] is given as “give protection against the lethal effects of daunorubicin”.
